Measured values taken from article PMC6978316, “Development of chimeric peptides to facilitate the neutralisation of lipopolysaccharides during bactericidal targeting of multidrug-resistant Escherichia coli” (Communications Biology, 2020).
Where two headings read alike, the source gives them in different places. Where a SMILES comes first, the peptide text is derived from it. Bridges are numbered along the chain shown (N, C = ends).

Legend:
E. coli CVCC195 = assay type: cell-based, Escherichia coli; conditions: E. coli CVCC195
Method: Bacterial resistance against the peptides was assessed via the MIC assays. […] After 16–18 h of incubation at 37 °C, cells from the second highest concentration showing visible growth were used to inoculate the subsequent cultures. The MIC values for drug passage cultures were obtained as described above. This process was repeated for 30 d.

MDR E. coli CVCC195 [1] = assay: Thermal stability, residual antibacterial activity (inhibition zone); assay type: physicochemical, Escherichia coli; conditions: mean of n = 3
Method: (§1) The N6, A6, and G6 solutions were treated at different temperatures (20–100 °C) for 1 h, dissolved and incubated at different pH values (2–10) for 3 h, or incubated with trypsin or pepsin for 4 h. The inhibition zone diameters were measured after incubation at 37 °C for 18–24 h.

MDR E. coli CVCC195 [2] = assay: pH stability, residual antibacterial activity (inhibition zone); assay type: physicochemical, Escherichia coli; conditions: inhibition zone vs E. coli CVCC195, mean of n = 3
Method: as §1

MDR E. coli CVCC195 [3] = assay: Time-killing curves (bactericidal kinetics); assay type: cell-based, Escherichia coli; conditions: 1 × or 2 × MIC, MHB, 37 °C
Method: The bactericidal effect of peptides was investigated according to previous methods. […] Physiological saline was added as a control. Bacterial samples (100 μl) were removed at different time points (0, 0.5, 1, 2, 4, 6, 8, 10, and 12 h) and were counted on MH solid plates. The time-killing curve of A6 and G6 was plotted.

NF-κB p-p65 subunit = assay: Western blotting of lung tissues, p-p65/p65; assay type: in vivo, mice; conditions: for densitometric analysis of p-p65/p65 ratio: LPS + substance, Mean; for inhibition of LPS-induced translocation of the NF-κB p-p65 subunit: lung tissue 8 h, LPS 13.5 mg per kg, western blotting, densitometry
Method: Additionally, the mice were sacrificed at 8 h and the lung tissues were homogenized and suspended in […] HEPES buffer for 20 min according to standard procedures. After centrifugation at 4 °C for 20 min (12,000 rpm), the protein levels of supernatants were quantified using a Bradford protein assay kit. A total of 30 μg proteins were analyzed on an 8–12% sodium dodecyl sulfate-polyacrylamide gel electrophoresis (SDS-PAGE) gel and were immunoblotted onto PVDF membranes, followed by an incubation with the primary antibodies of p65, p-p65, extracellular signal-regulated kinase (ERK)1/2, p-ERK1/2, and IκBα overnight at 4 °C. After washing, the blots were incubated with the peroxidase conjugated goat-rabbit or goat-mouse antibodies. Relative protein expression levels were quantified by a densitometric measurement of chemiluminescence (ECL) reaction band. β-actin was used as the internal reference.

[4] = test system: Intestinal alkaline phosphatase (IAP); assay: IAP level in duodenum of LPS-challenged mice; assay type: in vivo; conditions: duodenum homogenate, peptides 0.25 μmol per kg, PMB 10 μmol per kg, LPS alone 10.2985, CK 14.2257, n = 3
Method: The mice were intraperitoneally injected with LPS at an absolute LD100 and then were treated with 0.25 μmol per kg peptides (A6, G6 and N6) or 10 μmol per kg PMB at 0.5 h after challenge. The mice were sacrificed at 2 h and the sera were collected to detect inflammatory cytokines (including TNF-α, IL-6 and IL-10) using ELISA kits. To visualize IAP activity, the duodenum was rapidly excised from the mice and was homogenized; the IAP levels in the superpants were detected as described in the Supplementary Information. […]
114 Effects of SCPs on inflammatory cytokines and IAP. The serum sample (50 μl) was added into
115 each well of the plate; 50 μl of TNF-α, IL-I, IL-10 or IAP standard, control and test samples were then
116 added to each well of the plate, followed by placing the latex film on the shaker and incubation for 2
117 h at room temperature. After discarding the liquid in the well, the enzyme labeling plate was placed in
118 a 400 μl washing solution in the washing machine for 4 times; the enzyme labeling plate is inverted
119 and tapped on a clean paper towel so that there was no residual liquid in each hole . Mouse TNF-α，
120 IL-I，IL10 or IAP Conjugate (HRP Conjugate Detection Ab) working solution (100 μl) was added to
121 each well of the plate (diluted 1:100 before the test); the latex film was placed on the shaker and
122 incubated for 2 h at room temperature. After discarding the liquid in the well, the enzyme labeling
123 plate was placed in a 400 μl washing solution in the washing machine for 4 times, then the enzyme
124 labeling plate is inverted, and tapped on a clean paper towel so that there is no residual liquid in each
125 hole. Substrate Solution (100 μl) was added to each well of the plate and incubated at room
126 temperature for 30 min in the dark. Finally, 100 μl of Stop Solution (2N sulfuric acid solution) was
127 added to each well of the plate and gently mixed the plate to stop the reaction. The optical density
128 value was read by placing the microplate in a microplate reader for 30 min with the reading
129 wavelength of 450 nm and the calibration wavelength of 570 nm.
131 1. Kaplan, C. W., et al. Selective membrane disruption: mode of action of C16G2, a specifically
133 2. Eckert, R., et al. Adding selectivity to antimicrobial peptides: rational design of a multidomain
134 peptide against Pseudomonas spp. Antimicrob Agents Chemother. 50(4), 1480–1488 (2006).
135 3. Eckert, R., et al. Targeted killing of Streptococcus mutans by a pheromone-guided "smart"

[5] = test system: 1:1 mixture of E. coli CVCC195 and S. aureus ATCC43300; assay type: cell-based, Escherichia coli; Staphylococcus aureus; conditions: Mean
Method: The selectivity of A6, G6, and N6 against Gram-negative and Gram-positive bacteria was determined using the mixed-culture bactericidal kinetics assay, as described in the Supplementary Information.
27 Supplementary Figure 6. Killing selectivity of peptides. A 1:1 mixture of E. coli (Ec) and S. aureus
28 (Sa) was treated with A6 (16 μg per ml), G6 (16 μg per ml) or N6 (2 μg per ml) for 1, 3 and 5 min,
29 respectively; survivors were counted in MH plates. The change in relative ratio of E. coli to S. aureus
30 (Ec/Sa) after treatment with A6, G6 or N6 is shown.
31 independent experiments).
(1 picture or pasted object on this page, not shown here)
102 Supplementary Methods
103 Mixed-culture bactericidal kinetics of SCPs-A6 and G6. The mid-exponential phage E. coli
104 CVCC195 and S. aureus ATCC43300 cultures were diluted to 2 × 10^5 CFU per ml, mixed (1:1) and
105 added into the 96-well plates. A6, G6 or N6 were added into each well of plates to final concentration
106 of 16 (A6 and G6) or 2 (N6) μg per ml in a 200-μl total volume. An aliquot was removed at 1, 3 and 5
107 min, respectively, and survivors were counted on MH solid plates1–3. […]

[6] = 20℃ for 1 h, inhibition zone vs E. coli CVCC195 after 37 °C 18–24 h
[7] = 40℃ for 1 h, inhibition zone vs E. coli CVCC195
[8] = 60℃ for 1 h, inhibition zone vs E. coli CVCC195
[9] = 80℃ for 1 h, inhibition zone vs E. coli CVCC195
[10] = 100℃ for 1 h, inhibition zone vs E. coli CVCC195

Row | Compound | change of MIC over the course of 30 serial passages (E. coli CVCC195) | antibacterial activity after heat treatment (inhibition zone diameter), Mean (MDR E. coli CVCC195 [1]; [6]) | antibacterial activity after heat treatment (inhibition zone diameter), Mean (MDR E. coli CVCC195 [1]; [7]) | antibacterial activity after heat treatment (inhibition zone diameter), Mean (MDR E. coli CVCC195 [1]; [8]) | antibacterial activity after heat treatment (inhibition zone diameter), Mean (MDR E. coli CVCC195 [1]; [9]) | antibacterial activity after heat treatment (inhibition zone diameter), Mean (MDR E. coli CVCC195 [1]; [10]) | antibacterial activity after pH treatment (inhibition zone diameter), Mean (MDR E. coli CVCC195 [2]; pH=2 for 3 h) | antibacterial activity after pH treatment (inhibition zone diameter), Mean (MDR E. coli CVCC195 [2]; pH=4 for 3 h) | antibacterial activity after pH treatment (inhibition zone diameter), Mean (MDR E. coli CVCC195 [2]; pH=6 for 3 h) | antibacterial activity after pH treatment (inhibition zone diameter), Mean (MDR E. coli CVCC195 [2]; pH=8 for 3 h) | antibacterial activity after pH treatment (inhibition zone diameter), Mean (MDR E. coli CVCC195 [2]; pH=10 for 3 h) | time to completely kill E. coli CVCC195 (MDR E. coli CVCC195 [3]) [h] | densitometric analysis of p-p65/p65 ratio (NF-κB p-p65 subunit) | inhibition of LPS-induced translocation of the NF-κB p-p65 subunit (NF-κB p-p65 subunit) [%] | IAP, Mean [4] | killing selectivity of peptides ([5]; time 0 min) | killing selectivity of peptides ([5]; time 1 min) | killing selectivity of peptides ([5]; time 3 min) | killing selectivity of peptides ([5]; time 5 min)
1 | CC(C)[C@@H]1NC(=O)CNC(=O)[C@H](CC(N)=O)NC(=O)[C@H](CCCNC(=N)N)NC(=O)[C@H](Cc2ccc(O)cc2)NC(=O)[C@H](C(C)C)NC(=O)[C@@H](NC(=O)[C@@H](NC(=O)[C@H](CC(N)=O)NC(=O)[C@H](Cc2c[nH]c3ccccc23)NC(=O)[C@H](C)NC(=O)[C@H](Cc2ccccc2)NC(=O)CNC(=O)[C@H](CO)NC(=O)CNC(=O)CNC(=O)CNC(=O)CNC(=O)[C@H](CCCCN)NC(=O)[C@H](Cc2ccccc2)NC(=O)[C@H](Cc2ccccc2)NC(=O)[C@H](CO)NC(=O)[C@H](C)NC(=O)[C@H](CCCNC(=N)N)NC(=O)[C@@H](NC(=O)[C@H](CCCCN)NC(=O)[C@H](Cc2c[nH]c3ccccc23)NC(=O)[C@H](CCCNC(=N)N)NC(=O)CNC(=O)[C@H](CCC(N)=O)NC(=O)[C@@H](NC(=O)[C@@H](N)CCCNC(=N)N)C(C)C)C(C)C)C(C)C)CSSC[C@@H](C(=O)N[C@@H](Cc2c[nH]cn2)C(=O)N[C@@H](CCCNC(=N)N)C(=O)N[C@@H](CCCNC(=N)N)C(=O)N[C@@H](C)C(=O)N[C@@H](CC(N)=O)C(=O)O)NC(=O)[C@H](C(C)C)NC(=O)[C@H](CCCNC(=N)N)NC1=O [G6] (H-RVQGRWKVRASFFKGGGGSGFAWNVCVYRNGVRVCHRRAN-OH; disulfide 26-35) | hardly changed | 1.451 | 1.421 | 1.5 | 1.473 | 1.413 | 1.407 | 1.44 | 1.4 | 1.383 | 1.387 | ≤ 1 | 0.7685 | 25.3 | 11.4812 | 0.9569 | 0.5118 | 0.1311 | 
2 | polymyxin B [PMB] | hardly changed |  |  |  |  |  |  |  |  |  |  | ≤ 1 | 0.01553 | 98.4 | 13.0879 |  |  |  | 
3 | H-RVQGRWKVRASFFKEAAAKEAAAKGFAWNVCVYRNGVRVCHRRAN-OH (disulfide 31-40) [A6] | hardly changed | 1.498 | 1.533 | 1.494 | 1.5 | 1.477 | 1.463 | 1.443 | 1.4 | 1.41 | 1.4 | ≤ 1 | 0.106 | 89.7 | 11.893 | 0.9569 | 0.7697 | 0.8015 | 0.5904
4 | CC(C)[C@@H]1NC(=O)CNC(=O)[C@H](CC(N)=O)NC(=O)[C@H](CCCNC(=N)N)NC(=O)[C@H](Cc2ccc(O)cc2)NC(=O)[C@H](C(C)C)NC(=O)[C@@H](NC(=O)[C@@H](NC(=O)[C@H](CC(N)=O)NC(=O)[C@H](Cc2c[nH]c3ccccc23)NC(=O)[C@H](C)NC(=O)[C@H](Cc2ccccc2)NC(=O)CN)C(C)C)CSSC[C@@H](C(=O)N[C@@H](Cc2c[nH]cn2)C(=O)N[C@@H](CCCNC(=N)N)C(=O)N[C@@H](CCCNC(=N)N)C(=O)N[C@@H](C)C(=O)N[C@@H](CC(N)=O)C(=O)O)NC(=O)[C@H](C(C)C)NC(=O)[C@H](CCCNC(=N)N)NC1=O [N6] (H-GFAWNVCVYRNGVRVCHRRAN-OH; disulfide 7-16; N-terminus and C-terminus assumed) |  | 1.935 | 1.912 | 1.95 | 1.964 | 1.917 | 1.883 | 1.877 | 1.87 | 1.86 | 1.887 | 4 | 0.9793 | 5 | 10.7594 | 0.9569 | 0.9093 | 0.8204 | 0.6732
